These results are taken from US12649751B2 (Arcus Biosciences, Inc., priority 2022, dated 2026).

Read-outs that look alike come from different tables or passages of the source.

One test addresses HPK1 (Homo sapiens, UniProt Q92918). In words: HPK1 Biochemical Assay (ADP-Glo luminescence; low ATP 10 μM or high ATP 200 μM).
The subject of test [1] is p-SLP-76 (Ser376) in Jurkat cells. In words: pSLP76 Cellular Assay (AlphaLISA SureFire Ultra p-SLP-76 (Ser376), anti-CD3 activated Jurkat cells). The test is classed as cell-based. The conditions noted are these: Homo sapiens, read-out: Cellular Potency. Put shortly:
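Read-out is AlphaLISA p-SLP-76 (Ser376) signal at 570 nm in Jurkat lysates, with IC50 fitted by 4-parameter logistic. Cells were starved overnight, exposed 1 h at 37 °C to 22 twofold compound dilutions in HBSS, then activated 45 min with anti-CD3 (0.025 mg/ml stock added).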
A general note: Alpha assays give light when donor and acceptor beads are brought close together.

[2] abbreviates: HPK1 ADP-Glo assay, high ATP (200 μM ATP, 5 nM HPK1), read-out: Biochemical Potency (high ATP).
The mark [3] stands for this setting: pSLP76 (Ser376) AlphaLISA, anti-CD3 activated Jurkat cells.
The mark [4] stands for this setting: HPK1 ADP-Glo assay, low ATP (10 μM ATP, 2 nM HPK1), read-out: Biochemical Potency (low ATP).
The mark [5] stands for this setting: 2 nM HPK1, 10 μM ATP, read-out: Biochemical Potency (low ATP).
The mark [6] stands for this setting: Jurkat cells, anti-CD3 stimulation, pSLP76.

Sequence of HPK1 (Q92918 whole entry, species assumed): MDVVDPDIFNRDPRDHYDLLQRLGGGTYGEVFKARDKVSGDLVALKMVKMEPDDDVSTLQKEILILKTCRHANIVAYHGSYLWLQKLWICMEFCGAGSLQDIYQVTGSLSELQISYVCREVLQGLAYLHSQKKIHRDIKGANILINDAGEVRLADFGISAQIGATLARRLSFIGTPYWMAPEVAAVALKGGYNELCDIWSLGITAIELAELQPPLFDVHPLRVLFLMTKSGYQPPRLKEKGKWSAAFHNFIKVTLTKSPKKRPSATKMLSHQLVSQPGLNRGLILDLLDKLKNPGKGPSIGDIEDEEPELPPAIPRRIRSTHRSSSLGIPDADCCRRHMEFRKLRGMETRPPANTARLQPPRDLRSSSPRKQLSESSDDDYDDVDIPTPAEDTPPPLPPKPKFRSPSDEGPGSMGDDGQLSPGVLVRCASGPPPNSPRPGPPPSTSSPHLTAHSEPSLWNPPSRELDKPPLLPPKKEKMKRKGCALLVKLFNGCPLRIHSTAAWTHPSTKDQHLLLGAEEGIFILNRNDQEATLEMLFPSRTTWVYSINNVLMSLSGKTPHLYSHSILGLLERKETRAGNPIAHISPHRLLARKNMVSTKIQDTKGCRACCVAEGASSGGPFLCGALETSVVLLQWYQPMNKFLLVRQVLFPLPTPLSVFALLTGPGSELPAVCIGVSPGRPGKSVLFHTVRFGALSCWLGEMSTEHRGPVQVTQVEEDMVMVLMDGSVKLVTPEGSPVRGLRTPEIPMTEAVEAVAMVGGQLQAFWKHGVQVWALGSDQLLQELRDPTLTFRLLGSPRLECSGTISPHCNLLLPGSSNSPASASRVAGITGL

Consider `Cc1cc(Nc2cc3nc(-c4cccc5c4CCCN5)sc3cn2)nc(N2C[C@@H]3C[C@H]2CN3C)n1` [Example 313, 6-methyl-2-[(1S,4S)-5-methyl-2,5-diazabicyclo[2.2.1]heptan-2-yl]-N-[2-(1,2,3,4-tetrahydroquinolin-5-yl)-[1,3]thiazolo[5,4-c]pyridin-6-yl]pyrimidin-4-amine], for which the IC50 (on HPK1 (setting [2]); in test [1] (setting [3])) was < 100 nM throughout.

Take `Cc1cccnc1-c1nc2cc(Nc3cc(C4CCC(O)CC4)nc(N4C[C@@H]5C[C@H]4CN5C)n3)ncc2s1` (stereo partly drawn) [Example 507]: the IC50 is < 100 nM at HPK1 (setting [2]) and 100 to 1000 nM in test [1] (setting [3]).

For the compound `Cc1cccnc1-c1nc2cc(Nc3ccc4c(n3)[C@@](C)(N)CC4)ncc2s1` [Example 576], the IC50 is < 100 nM at HPK1 (setting [4]) and 1000 to 5000 nM in test [1] (setting [3]).

As for `Cc1cc(Nc2cc3nc(-c4cccc5c4CCCN5S(C)(=O)=O)sc3cn2)nc(N2C[C@@H]3C[C@H]2CN3C)n1` [Example 312, N-[2-(1-methanesulfonyl-1,2,3,4-tetrahydroquinolin-5-yl)-[1,3]thiazolo[5,4-c]pyridin-6-yl]-6-methyl-2-[(1S,4S)-5-methyl-2,5-diazabicyclo[2.2.1]heptan-2-yl]pyrimidin-4-amine], the IC50 at HPK1 (setting [2]) was 100 to 1000 nM; in test [1] (setting [3]) it was 1000 to 5000 nM.

Take `Cc1c(-c2nc3cc(Nc4ccc(N5CCOCC5)c(CN(C)C)n4)ncc3s2)cnc2c1NCCO2` [Example 28, 6-[(Dimethylamino)methyl]-N-(2-{8-methyl-1H,2H,3H-pyrido[2,3-b][1,4]oxazin-7-yl}-[1,3]thiazolo[5,4-c]pyridin-6-yl)-5-(morpholin-4-yl)pyridin-2-amine]: the IC50 on HPK1 (setting [5]) is < 100 nM; in test [1] (setting [6]), 100 to 1000 nM.

With `Cc1cc(Nc2cc3nc(-c4ccnc(N5CCO[C@@H](C)C5)c4)sc3cn2)nc(N2C[C@@H]3C[C@H]2CN3CCO)n1` [Example 446], the IC50 on HPK1 (setting [2]) is < 100 nM; in test [1] (setting [3]) it was 100 to 1000 nM.

For `Cc1cc(Nc2cc3nc(-c4ncccc4C)sc3cn2)nc(N2C[C@@H]3C[C@H]2CN3C)n1` [Example 160, 6-Methyl-2-[(1S,4S)-5-methyl-2,5-diazabicyclo[2.2.1]heptan-2-yl]-N-[2-(3-methylpyridin-2-yl)-[1,3]thiazolo[5,4-c]pyridin-6-yl]pyrimidin-4-amine], the IC50 (at HPK1 (setting [5]); in test [1] (setting [6])) was < 100 nM in each case.

For `c1cc(-c2nnco2)cc(-c2nc3cc(Nc4cccc(N5C[C@@H]6C[C@H]5CN6)n4)ncc3s2)c1` [Example 142, 6-[(1S,4S)-2,5-Diazabicyclo[2.2.1]heptan-2-yl]-N-{2-[3-(1,3,4-oxadiazol-2-yl)phenyl]-[1,3]thiazolo[5,4-c]pyridin-6-yl}pyridin-2-amine], the IC50 at HPK1 (setting [5]) was < 100 nM; in test [1] (setting [6]) it was 1000 to 5000 nM.

For the compound `CCN1C[C@@H]2C[C@H]1CN2c1nc(Nc2cc3nc(-c4ccnc(C(C)(C)O)c4)sc3cn2)cc(C)c1F` [Example 337], the IC50 at HPK1 (setting [2]) is < 100 nM; in test [1] (setting [3]), 100 to 1000 nM.

For the compound `c1cnn(-c2nc3cc(Nc4ccnc(N5C[C@@H]6C[C@H]5CN6)n4)ncc3s2)c1` [Example 431], the figures for the IC50 (at HPK1 (setting [2]); at HPK1 (setting [4]); in test [1] (setting [3])) were < 100 nM, < 100 nM and 100 to 1000 nM, respectively.

Take `CCN1C[C@@H]2C[C@H]1CN2c1nc(C)cc(Nc2cc3nc(-c4cccc(COC5CC5)c4)sc3cn2)n1` [Example 567]: the IC50 was < 100 nM on HPK1 (setting [2]) and 100 to 1000 nM in test [1] (setting [3]).

Turning to `Cc1cc(Nc2cc3nc(-c4c(C)ccc(C(C)(C)O)c4C)sc3cn2)nc(N2C[C@@H]3C[C@H]2CN3C)n1` [Example 467], the IC50 (at HPK1 (setting [2]); in test [1] (setting [3])) was < 100 nM in each case.

Consider `CNC(=O)c1cccc(-c2nc3cc(Nc4cccc(N5C[C@@H]6C[C@H]5CN6C)n4)ncc3s2)c1` [Example 135, N-Methyl-3-[6-({6-[(1S,4S)-5-methyl-2,5-diazabicyclo[2.2.1]heptan-2-yl]pyridin-2-yl}amino)-[1,3]thiazolo[5,4-c]pyridin-2-yl]benzamide], for which the IC50 on HPK1 (setting [5]) is < 100 nM; in test [1] (setting [6]) it was 1000 to 5000 nM.

For `CN1CCc2ccc(Nc3cc4nc(-c5c(F)cccc5F)sc4cn3)cc2CC1` [Example 328], the results for the IC50 (at HPK1 (setting [4]); in test [1] (setting [3])) were 100 to 1000 nM and 5000 to 25000 nM, respectively.

With `Cc1cccnc1-c1nc2cc(Nc3ccc(C)c(N4C[C@@H]5C[C@H]4CN5)n3)ncc2s1` [Example 84, 6-[(1S,4S)-2,5-Diazabicyclo[2.2.1]heptan-2-yl]-5-methyl-N-[2-(3-methylpyridin-2-yl)-[1,3]thiazolo[5,4-c]pyridin-6-yl]pyridin-2-amine], the IC50 was < 100 nM on HPK1 (setting [5]) and 100 to 1000 nM in test [1] (setting [6]).

As to `Cc1cc(Nc2cc3nc(-c4cnn(C(C)(C)C#N)c4)sc3cn2)nc(N2C[C@@H]3C[C@H]2CN3C)n1` [Example 371], the IC50 on HPK1 (setting [2]) is < 100 nM; in test [1] (setting [3]) it was 100 to 1000 nM.

As to `CC(C)(N)c1nc(Nc2cc3nc(-c4c(F)cccc4F)sc3cn2)ccc1N1CCOCC1` [Example 269, 6-(2-Aminopropan-2-yl)-N-[2-(2,6-difluorophenyl)-[1,3]thiazolo[5,4-c]pyridin-6-yl]-5-(morpholin-4-yl)pyridin-2-amine], the values for the IC50 (on HPK1 (setting [5]); in test [1] (setting [6])) were < 100 nM and 1000 to 5000 nM, respectively.

Turning to `Cc1cc(Nc2cc3nc(-c4cnn(C5CCN(S(C)(=O)=O)CC5)c4)sc3cn2)nc(N2C[C@@H]3C[C@H]2CN3C)n1` [Example 572], the IC50 on HPK1 (setting [2]) was < 100 nM; in test [1] (setting [3]) it was 1000 to 5000 nM.

With `CCN1C[C@@H]2C[C@H]1CN2c1nc(C)cc(Nc2cc3nc(-c4cccc(S(=O)(=O)N5CCCC5)c4)sc3cn2)n1` [Example 341], the IC50 on HPK1 (setting [2]) was < 100 nM; in test [1] (setting [3]), 100 to 1000 nM.

As for `Cc1cccnc1-c1nc2cc(Nc3ccc(C)c(N4C[C@@H]5C[C@H]4CN5C)n3)ncc2s1` [Example 101, 5-Methyl-6-[(1S,4S)-5-methyl-2,5-diazabicyclo[2.2.1]heptan-2-yl]-N-[2-(3-methylpyridin-2-yl)-[1,3]thiazolo[5,4-c]pyridin-6-yl]pyridin-2-amine], the IC50 is < 100 nM at HPK1 (setting [5]) and 100 to 1000 nM in test [1] (setting [6]).

Consider `Cc1cccnc1-c1nc2cc(Nc3cc(C4CCOCC4)nc(N4C[C@@H]5C[C@H]4CN5)n3)ncc2s1` [Example 444], for which the IC50 (on HPK1 (setting [4]); in test [1] (setting [3])) was < 100 nM throughout.

For the compound `Cc1cc(Nc2cc3nc(-c4cccc(S(=O)(=O)CC5CC5)c4)sc3cn2)nc(N2C[C@@H]3C[C@H]2CN3CCO)n1` [Example 501], the IC50 (on HPK1 (setting [2]); in test [1] (setting [3])) was < 100 nM throughout.

Take `Cc1cc(Nc2cc3nc(-c4cnn(CC5CCCCO5)c4)sc3cn2)nc(N2C[C@@H]3C[C@H]2CN3C)n1` (stereo partly drawn) [Example 363]: the IC50 at HPK1 (setting [2]) was < 100 nM; in test [1] (setting [3]) it was 100 to 1000 nM.

Take `CC(C)(N)c1nc(Nc2cc3nc(-c4c(F)cccc4F)sc3cn2)ccc1N1CCC(F)(F)C1` [Example 271, 6-(2-Aminopropan-2-yl)-N-[2-(2,6-difluorophenyl)-[1,3]thiazolo[5,4-c]pyridin-6-yl]-5-(3,3-difluoropyrrolidin-1-yl)pyridin-2-amine]: the IC50 was < 100 nM on HPK1 (setting [5]) and 1000 to 5000 nM in test [1] (setting [6]).

For `Cc1cc(Nc2cc3nc(-c4cccc(NC(=O)C5CC5)c4)sc3cn2)nc(N2C[C@@H]3C[C@H]2CN3C)n1` [Example 392], the results for the IC50 (at HPK1 (setting [2]); in test [1] (setting [3])) were < 100 nM and 100 to 1000 nM, respectively.
